Source: US9676714B2, “Sulfonylindole derivatives and method for preparing the same” (Daewoong Pharmaceutical Co., Ltd., priority 2013, dated 2017)
Where a name gives a salt, the structure may show the parent alone.

Biological target: T1, proton pump (H+/K+-ATPase) (Sus scrofa, UniProt P19156)
T1 construct: Gastric vesicles were prepared from hog stomach via centrifugal separation; from tissue; host or cells: hog stomach (gastric vesicles, method of Rabon et al. 1988)
Experiment: Measurement of inhibitory effects on proton pump (H+/K+-ATPase) activities
Type: biochemical
Details: hog gastric vesicles, K+-specific H+/K+-ATPase activity, Tris-HCl buffer pH 7.4, 37° C. for 40 minutes, malachite green Pi readout
Summary of the method: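 Hog gastric vesicles in 60 mmol/l Tris-HCl pH 7.4 with 0.5% DMSO were treated with compounds at room temperature; reaction was started with 10 μl of 10 mmol/l ATP stock. Released Pi was read at 570 nm, K+-specific activity taken as the ±K+ difference. IC50 from 4-parameter logistic fit.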

T1 sequence (P19156 whole entry): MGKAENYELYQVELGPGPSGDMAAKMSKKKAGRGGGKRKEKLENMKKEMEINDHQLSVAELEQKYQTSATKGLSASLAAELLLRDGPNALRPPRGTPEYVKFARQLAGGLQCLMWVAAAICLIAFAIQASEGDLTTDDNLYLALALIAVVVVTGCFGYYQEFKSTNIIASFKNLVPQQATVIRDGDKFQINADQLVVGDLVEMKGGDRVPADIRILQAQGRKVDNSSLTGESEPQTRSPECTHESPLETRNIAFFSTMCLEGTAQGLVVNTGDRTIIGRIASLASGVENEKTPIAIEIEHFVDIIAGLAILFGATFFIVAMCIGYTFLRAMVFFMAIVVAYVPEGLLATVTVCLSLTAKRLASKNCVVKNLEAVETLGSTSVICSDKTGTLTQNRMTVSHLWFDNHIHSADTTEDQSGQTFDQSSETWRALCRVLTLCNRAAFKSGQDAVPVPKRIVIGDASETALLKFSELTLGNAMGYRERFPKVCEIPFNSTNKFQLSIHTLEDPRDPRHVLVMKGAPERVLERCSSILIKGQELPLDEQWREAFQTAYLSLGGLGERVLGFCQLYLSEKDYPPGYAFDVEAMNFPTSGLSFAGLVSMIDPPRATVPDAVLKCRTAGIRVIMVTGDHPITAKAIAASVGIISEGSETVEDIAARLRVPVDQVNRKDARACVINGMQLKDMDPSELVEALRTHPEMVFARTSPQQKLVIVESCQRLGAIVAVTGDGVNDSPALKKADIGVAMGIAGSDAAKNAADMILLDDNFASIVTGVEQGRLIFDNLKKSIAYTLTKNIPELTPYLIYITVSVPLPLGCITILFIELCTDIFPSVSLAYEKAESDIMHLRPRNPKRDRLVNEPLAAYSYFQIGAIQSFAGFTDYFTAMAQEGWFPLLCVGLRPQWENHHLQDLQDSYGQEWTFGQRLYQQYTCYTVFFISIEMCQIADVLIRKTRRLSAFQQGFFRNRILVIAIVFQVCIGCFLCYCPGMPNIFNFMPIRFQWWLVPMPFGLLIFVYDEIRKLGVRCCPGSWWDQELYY
T1 sequence (P18434 whole entry partner): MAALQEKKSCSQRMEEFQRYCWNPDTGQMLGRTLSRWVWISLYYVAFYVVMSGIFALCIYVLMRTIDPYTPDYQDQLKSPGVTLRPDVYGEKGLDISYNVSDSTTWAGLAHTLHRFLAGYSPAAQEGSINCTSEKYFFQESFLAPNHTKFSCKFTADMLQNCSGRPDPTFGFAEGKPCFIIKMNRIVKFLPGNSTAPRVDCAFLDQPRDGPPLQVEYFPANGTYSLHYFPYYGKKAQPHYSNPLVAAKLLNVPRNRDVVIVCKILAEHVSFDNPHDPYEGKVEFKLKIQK

| SMILES | IC50 |
| --- | --- |
| CNCc1cn(S(=O)(=O)c2cccnc2)c2cc(Nc3ccccc3Cl)ccc12 [Example 4, N-(2-chlorophenyl)-3-((methylamino)methyl)-1-(pyridin-3-ylsulfonyl)-1H-indol-6-amine hydrochloride] | 60 nM |
| CNCc1cn(S(=O)(=O)c2cccnc2)c2cc(Nc3cc(F)c(F)cc3C)ccc12 [Example 73, N-(4,5-difluoro-2-methylphenyl)-3-((methylamino)methyl)-1-(pyridin-3-ylsulfonyl)-1H-indol-6-amine hydrochloride] | 160 nM |
| CNCc1cn(S(=O)(=O)c2cccnc2)c2cc(Nc3ccc(Oc4ccc(Cl)cc4)cc3)ccc12 [Example 19, N-(4-(4-chlorophenoxy)phenyl)-3-((methylamino)methyl)-1-(pyridin-3-ylsulfonyl)-1H-indol-6-amine hydrochloride] | 1910 nM |
| CNCc1cn(S(=O)(=O)c2cccnc2)c2cc(Nc3ccc([N+](=O)[O-])cc3C)ccc12 [Example 42, N-(2-methyl-4-nitrophenyl)-3-((methylamino)methyl)-1-(pyridin-3-ylsulfonyl)-1H-indol-6-amine hydrochloride] | 340 nM |
| CNCc1cn(S(=O)(=O)c2cccc(Cl)c2)c2cc(Nc3ccc(Cl)nc3Cl)ccc12 [Example 159, 1-((3-chlorophenyl)sulfonyl)-N-(2,6-dichloropyridin-3-yl)-3-((methylamino)methyl)-1H-indol-6-amine hydrochloride] | 340 nM |
| CNCc1cn(S(=O)(=O)c2cccc(C(F)(F)F)c2)c2cc(Nc3ccc(C)nc3Cl)ccc12 [Example 192, N-(2-chloro-6-methylpyridin-3-yl)-3-((methylamino)methyl)-1-((3-(trifluoromethyl)phenyl)sulfonyl)-1H-indol-6-amine hydrochloride] | 60 nM |

The next lines start with the values.

| IC50 | SMILES |
| --- | --- |
| 25000 nM | CNCc1cn(S(=O)(=O)c2cccnc2)c2cc(Oc3ncc(F)cn3)ccc12 [Example 313, 1-(6-((5-fluoropyrimidin-2-yl)oxy)-1-(pyridin-3-ylsulfonyl)-1H-indol-3-yl)-N-methylmethanamine hydrochloride] |
| 290 nM | CNCc1cn(S(=O)(=O)c2ccc(OC(F)F)cc2)c2cc(Nc3ccc(C)cc3Cl)ccc12 [Example 220, N-(2-chloro-4-methylphenyl)-1-((4-(difluoromethoxy)phenyl)sulfonyl)-3-((methylamino)methyl)-1H-indol-6-amine hydrochloride] |
| 1750 nM | CNCc1cn(S(=O)(=O)c2cc(C)cc(C)c2)c2cc(Nc3ccc(C)cc3F)ccc12 [Example 239, 1-((3,5-dimethylphenyl)sulfonyl)-N-(2-fluoro-4-methylphenyl)-3-((methylamino)methyl)-1H-indol-6-amine hydrochloride] |
| 1870 nM | CNCc1cn(S(=O)(=O)c2cccnc2)c2cc(Cc3ccc(OC(F)(F)F)cc3OC)ccc12 [Example 281, 1-(6-(2-methoxy-4-(trifluoromethoxy)benzyl)-1-(pyridin-3-ylsulfonyl)-1H-indol-3-yl)-N-methylmethanamine hydrochloride] |
| 3500 nM | COC(=O)c1cn(S(=O)(=O)c2cccnc2)c2cc(-c3ccc(OC)nc3)ccc12 [Example 338, methyl 6-(6-methoxypyridin-3-yl)-1-(pyridin-3-ylsulfonyl)-1H-indol-3-carboxylate] |
| 850 nM | CNCc1cn(S(=O)(=O)c2cccc(OC(F)(F)F)c2)c2cc(Nc3ccc(Cl)cc3F)ccc12 [Example 197, N-(4-chloro-2-fluorophenyl)-3-((methylamino)methyl)-1-((3-(trifluoromethoxy)phenyl)sulfonyl)-1H-indol-6-amine hydrochloride] |
| 9150 nM | CNCc1cn(S(=O)(=O)c2cccnc2)c2cc(-c3cccnc3C(F)(F)F)ccc12 [Example 254, N-methyl-1-(1-(pyridin-3-ylsulfonyl)-6-(2-(trifluoromethyl)pyridin-3-yl)-1H-indol-3-yl)methanamine hydrochloride] |
